Reference: paper PMC2765688, “Functional Characterization of N-Terminally GFP-Tagged GLP-1 Receptor” (Journal of Biomedicine and Biotechnology, 2009)

Experiments:
GFP-GLP-1 receptor = biological target: T1, GFP-GLP-1 receptor (Homo sapiens, UniProt P43220); experiment: cAMP production, CHO cells expressing GFP-GLP-1 receptor; format: cell-based; conditions: 10 μM forskolin, 15 min, 37°C
T1 construct: linker: translated MCS of pEGFP-C3 plus translated 5'-untranslated region of clone hGLPR-6(20), between EGFP and the receptor (N); expressed in transfected cells; host or cells: CHO cells, transient transfection, pEGFP-C3
Protocol: (§1) Cells were plated in 6-well plates at 50 × 10^4 cells/well and incubated 24 hours in growth medium supplemented with 10% fetal bovine serum.
(§2) After stimulation, stimulating buffer was removed and replaced with 150 μL of TE buffer (50 mM Tris, 5 mM EDTA, pH = 7.4). Cells were lysed by scraping, followed by boiling at 100°C for 5 minutes and centrifuged at 16000× g for 10 minutes. The supernatant was collected and the total content of cAMP was measured by a specific radioimmunoassay (Amersham).
(§3) Statistical analysis (one-way ANOVA) was carried out by Prism 4 computer program (GraphPad Software, USA), which was used also for graphical presentation of the results. In ANOVA analysis Tukey-Kramer multiple comparison test was used to reveal significant differences between groups of interest; P > .05 was not considered significant.

human GLP-1 receptor = biological target: T2, human GLP-1 receptor (Homo sapiens, UniProt P43220); experiment: cAMP production, CHO cells expressing GLP-1 receptor; format: cell-based; conditions: 10 μM forskolin, 15 min, 37°C, P < .001
T2 construct: expressed in transfected cells; host or cells: CHO cells, transient transfection, pcDNA3
Protocol: as §1, §2, §3

C=C[C@@]1(C)CC(=O)[C@]2(O)[C@@]3(C)[C@@H](O)CCC(C)(C)[C@@H]3[C@H](O)[C@H](OC(C)=O)[C@@]2(C)O1 [forskolin]
cAMP production in response to forskolin (in words) (GFP-GLP-1 receptor; CHO cells expressing GFP-GLP-1 receptor, P < .001): significantly increased | Sensitivity to forskolin of GFP-GLP-1 receptor cells in comparison to GLP-1 receptor cells (in words) (GFP-GLP-1 receptor; Tukey-Kramer test): not more sensitive | cAMP production in response to forskolin (in words) (human GLP-1 receptor): significantly increased
